Measured values published in patent publication US9309256B2, “Pharmaceutically active dimers linked through phenolic hydroxyl groups” (OrphoMed LLC, priority 2014, dated 2016).

Assays:
IBS-D patients = conditions: cited from earlier work
μ opioid receptor [1] = target: T1, μ opioid receptor (Homo sapiens, UniProt P35372); conditions: briefing documents to FDA advisory committee; cited from earlier work
Target sequence in this assay (P35372 whole entry, species assumed): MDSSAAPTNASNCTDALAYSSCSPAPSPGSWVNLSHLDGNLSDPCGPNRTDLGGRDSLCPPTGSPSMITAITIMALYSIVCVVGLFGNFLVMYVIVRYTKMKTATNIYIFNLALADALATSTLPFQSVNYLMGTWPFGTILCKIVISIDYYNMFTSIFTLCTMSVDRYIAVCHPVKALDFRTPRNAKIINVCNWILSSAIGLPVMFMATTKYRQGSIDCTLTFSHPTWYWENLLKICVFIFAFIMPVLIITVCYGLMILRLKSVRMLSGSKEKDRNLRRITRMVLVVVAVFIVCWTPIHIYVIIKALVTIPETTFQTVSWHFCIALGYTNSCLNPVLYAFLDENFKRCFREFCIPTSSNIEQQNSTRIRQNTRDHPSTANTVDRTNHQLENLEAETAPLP

male CD-1 mice [2] = test: Effect on post-inflammatory altered GI transit time (mustard oil); format: in vivo; conditions: 25 mg per kg oral, mustard oil treated mice
Method: This test was designed to measure the effect of test substance on gastrointestinal hypersensitivity following inflammation. Post-inflammatory altered GI transit was induced in male CD-1 mice by injecting freshly opened oil of mustard (95% pure allyl isothiocyanate, 0.5% in ethanol). The effect of stress on the post-inflammatory GI tract was tested 3-4 weeks after dosing. […] The effect of the test substance was measured after oral administration (intragastric gavage) and subjecting animals to environmental stress by housing them in cages (20 cm wide×20 cm deep×15 cm tall), equipped with a wire mesh bottom. During the test the animals were allowed access to water ad lib. The wire mesh bottomed tall cage creates a novel environment which induces stress in mice. The number of pellets excreted is determined on hourly to two-hourly basis.

human μ receptors [3] = target: T2, human μ receptors (Homo sapiens, UniProt P35372); test: μ opioid receptor antagonist functional assay: [35S]GTPγS binding in CHO-hMOR cell membranes; format: biochemical; conditions: inhibition of agonist-stimulated GTPγS binding, FIG. 12
T2 construct: purchased Receptor Biology Inc. (Baltimore Md.); host or cells: CHO-hMOR cell membranes
T2 sequence (P35372 whole entry): as the sequence (P35372 whole entry, species assumed) above
Method: (§1) This example illustrates the ability of the buprenorphine dimer provided herein to stimulate the p-opioid receptor-mediated signaling. Briefly, CHO-hMOR cell membranes were purchased from Receptor Biology Inc. (Baltimore Md.). About 10 mg/ml of membrane protein was suspended in 10 mM TRIS-HCl pH 7.2, 2 mM EDTA, 10% sucrose, and the suspension kept on ice. One mL of membranes was added to 15 mL cold binding assay buffer containing 50 mM HEPES, pH 7.6, 5 mM MgCl2, 100 mM NaCl, 1 mM DTT and 1 mM EDTA. The membrane suspension was homogenized with a polytron and centrifuged at 3000 rpm for 10 min. The supernatant was then centrifuged at 18,000 rpm for 20 min. The pellet was resuspended in 10 mL assay buffer with a polytron. […]
(§2) The buprenorphine dimer was tested for function as an antagonist by evaluating its potential to inhibit agonist-stimulated GTPγS binding using D-Phe-Cys-Tyr-D-Trp-Orn-Thr-Pen-Thr-NH2 (CTOP) as the standard. Radioactivity was quantified on a Packard Top Count. The following parameters are calculated: % Stimulation=[(test compound cpm−non-specific cpm)/(basal cpm−non-specific cpm)]*100 % Inhibition=(% stimulation by 1 μM SNC80−% stimulation by 1 μM SNC80 in presence of test compound)*100/(% stimulation by 1 μM SNC80−100).
(§3) EC50 was calculated using GraphPad Prism.

human μ receptors [4] = target: T2, human μ receptors; test: μ opioid receptor agonist functional assay: [35S]GTPγS binding in CHO-hMOR cell membranes; format: biochemical; conditions: FIG. 11
Method: as §1, §2, §3

[5] = In vivo pharmacokinetic study, oral and IV; conditions: CD-1 mice, 10 mg/kg IV and oral gavage
Method: Animals used in these animal pharmacokinetic studies were CD-1 mice (about 35 gms, n=3 per time point). Drugs tested were buprenorphine and the buprenorphine dimer. Dose 10 mg/kg IV and oral gavage. Blood was collected at time 0, 30 min and 1, 2, 6 and 24 hours. Blood samples for the drug were analyzed after harvesting the plasma and by LC/MS/MS as follows:
Standard curve was prepared in mouse plasma spiked with either the test drugs (10-25000 nM). Plasma samples (50 μL) were extracted in 300 μL acetonitrile containing losartan or buprenorphine-d4 as internal standard. Extracts were centrifuged at 16000×g at 4° C. for 5 minutes. Supernatants (250 μL) were transferred to a new tube and dried under N2 at 45° C. for 1 hour. Samples were reconstituted with 100 μL of 30% acetonitrile, vortexed and centrifuged. Supernatants (90 μL) were transferred to LC vials and 10 μL is injected on LC/MS.

male CD-1 mice [6] = test: Stress-induced fecal output; format: in vivo
From the text: The animals used in the studies were male CD-1 mice, average weight about 30 to 35 g, with an average of 5 mice per dose group. The mice were generally housed in colony housing where they are housed 3 per cage in polycarbonate cages with access to food and water ad lib.
On the day of the experiment the mice were transported to the procedure room where they were individually housed in 20 cm wide×20 cm deep×15 cm tall cages, equipped with a wire mesh bottom after intragastric administration of test compounds. During the test the animals were allowed access to water only ad lib. The wire mesh bottomed tall cage creates a novel environment which induces stress in mice. The number of pellets excreted was determined on an hourly basis.

human liver microsomes [7] = test: Metabolic stability of buprenorphine dimer in human liver microsomes; conditions: 1 μM, human liver microsomes 1 mg protein/mL, 37 °C, with or without NADPH co-factor, up to 2 hours
Method: Incubations of the dimer (e.g., 1 μM) with human liver microsomes (e.g., 1 mg protein/mL) were carried out using a Tecan Liquid Handling System (Tecan), or equivalent, at 37±1° C. in 0.2-mL incubation mixtures (final volume) containing potassium phosphate buffer (50 mM, pH 7.4), MgCl2 (3 mM) and EDTA (1 mM, pH 7.4) with and without a cofactor, NADPH-generating system, at the final concentrations indicated in a 96-well plate format. The NADPH-generating system consisted of NADP (1 mM, pH 7.4), glucose-6-phosphate (5 mM, pH 7.4) and glucose-6-phosphate dehydrogenase (1 Unit/mL). The buprenorphine dimer was dissolved in aqueous methanolic solution (methanol 0.5% v/v, or less). […] Zero-time incubations served as 100% value to determine percent loss of substrate. […] The samples were subjected to centrifugation (e.g., 920×g for 10 min at 10° C.) and the supernatant fractions analyzed by LC-MS/MS. […]
The above samples were analyzed by an LC-MS/MS method. […] Results were determined by a comparison of peak ratios over the time course of the experiment (typically reported as “% Parent Remaining”).
Data were calculated with a LIMS (includes Galileo, Thermo Fisher Scientific Inc. and reporting tool, Crystal Reports, SAP), the spreadsheet computer program Microsoft Excel (Microsoft Corp.) or equivalent. […]

[8] = target: T3, human δ subtype 2 opioid receptor (Homo sapiens, UniProt P41143); test: Human δ opioid receptor binding assay (tritiated naltrindole displacement)
T3 construct: purchased Perkin Elmer RBHODM400UA; host or cells: Chinese Hamster Ovary cells (membranes)
T3 sequence (P41143 whole entry): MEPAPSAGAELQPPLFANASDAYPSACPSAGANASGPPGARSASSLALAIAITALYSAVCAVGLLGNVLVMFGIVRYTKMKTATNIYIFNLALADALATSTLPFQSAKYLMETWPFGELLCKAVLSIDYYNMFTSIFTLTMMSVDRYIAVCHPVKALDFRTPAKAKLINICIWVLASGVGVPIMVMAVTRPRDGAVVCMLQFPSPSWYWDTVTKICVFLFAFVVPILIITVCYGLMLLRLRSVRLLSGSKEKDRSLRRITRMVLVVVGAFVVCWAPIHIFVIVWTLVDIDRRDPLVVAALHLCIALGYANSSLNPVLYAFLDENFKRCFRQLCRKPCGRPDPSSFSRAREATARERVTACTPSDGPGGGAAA
Method: The assay was designed to test the ability of a compound to interfere with the binding of tritiated naltrindole to the human δ subtype 2 opioid receptor. Membranes from Chinese Hamster Ovary cells expressing the human δ subtype 2 opioid receptor (Perkin Elmer #RBHODM400UA) were homogenized in assay buffer (50 mM Tris, pH 7.5 with 5 mM MgCl2) using a glass tissue grinder, Teflon pestle and Steadfast Stirrer (Fisher Scientific). The concentration of membranes was adjusted to 100 μg/mL in the assay plate, a 96 well round bottom polypropylene plate. Compounds to be tested were solubilized in DMSO, 10 mM, then diluted in assay buffer to 6× the desired final concentration. The ligand, ^3H-natrindole (Perkin Elmer #NET-1065) was also diluted in assay buffer to 6 nM. Aliquots of ^3H-natrindole (50 μL) were transferred to the assay plate containing the membranes in duplicate. The assay plate was incubated for 30 minutes at room temperature. A GF/C 96 well filter plate (Perkin Elmer #6005174) was pretreated with 0.3% polyethylenimine for 30 min. The contents of the assay plate were filtered through the filter plate using a Packard Filtermate Harvester, and washed 3 times with 0.9% saline at 4° C. The filter plate was dried, the underside sealed, and a 30 μL MictoS=scint 20 (Packard #6013621) was added to each well. A Topcount-NXT Microplate Scintillation Counter (Packard) was used to measure emitted energies in the range of 2.9 to 35 KeV. Results are compared to maximum binding, wells receiving no inhibitors. Nonspecific binding was determined in the presence of 1 μM unlabelled Natrindole. […] Relative to the μ and κ opioid receptors, the dimer has poor affinity for the δ receptor.

μ opioid receptor [9] = target: T1, μ opioid receptor; test: Human μ opioid receptor binding assay (3H-Naloxone displacement); design: purchased Perkin Elmer RBHOMM400UA; host or cells: Chinese Hamster Ovary cells (membranes); conditions: FIG. 9
Target sequence in this assay (P35372 whole entry): as the sequence (P35372 whole entry, species assumed) above
Method: Membranes from Chinese Hamster Ovary cells expressing the human μ opioid receptor (Perkin Elmer #RBHOMM400UA) were homogenized in assay buffer (50 mM Tris, pH 7.5 with 5 mM MgCl2) using glass tissue grinder, Teflon pestle and Steadfast Stirrer (Fisher Scientific). The concentrates of the membranes were adjusted to 300 μg/mL in assay plate, a 96 well round bottom polypropylene plate. […] From the premix plate 50 μL was transferred to the assay plate containing the membranes, in duplicate. The assay plate was incubated for 2 h at room temperature. […] The contents of the assay plate were filtered through the filter plate using a Packard Filtermate Harvester, and washed 3 times with 0.9% saline at 4° C. […] A Topcount-NXT Microplate Scintillation Counter (Packard) was used to measure emitted energies in the range of 2.9 to 35 KeV. Results were compared to maximum binding, wells receiving no inhibitions.

[10] = Stress stability assay of the buprenorphine dimer (tap water, acid, base, heat); format: physicochemical; conditions: 1N HCl, 5% aqueous sodium bicarbonate, room temperature and 140° F., up to 30 minutes
Method: This study facilitated the understanding of the ease with which a potential abuser could cleave the dimer using household chemicals such as baking soda, acid or simple heating in water. Buprenorphine dimer stability was assessed at room temperature in untreated tap water and in presence of acid (1N HCl) or base (5% aqueous sodium bicarbonate).

mice = conditions: mildly stressed mice
From the text: In the study a group mice were subjected to mild stress, which normally induces diarrhea and gastrointestinal motility measured by number of fecal pellets excreted per hour.

human liver microsomes [11] = conditions: approximately 1 μM, human liver microsomes 1 mg protein/ml, up to 1 hour
Method: Incubations of the dimer (e.g., 1 μM) with human liver microsomes (e.g., 1 mg protein/mL) were carried out using a Tecan Liquid Handling System (Tecan), or equivalent, at 37±1° C. in 0.2-mL incubation mixtures (final volume) containing potassium phosphate buffer (50 mM, pH 7.4), MgCl2 (3 mM) and EDTA (1 mM, pH 7.4) with and without a cofactor, NADPH-generating system, at the final concentrations indicated in a 96-well plate format. The NADPH-generating system consisted of NADP (1 mM, pH 7.4), glucose-6-phosphate (5 mM, pH 7.4) and glucose-6-phosphate dehydrogenase (1 Unit/mL). […] Zero-time incubations served as 100% value to determine percent loss of substrate. Incubations were carried out in triplicate with an exception for zero-time samples (which were incubated in quadruplicate). Zero-cofactor (no NADPH) incubations were performed at zero-time and the longest time point. The samples were subjected to centrifugation (e.g., 920×g for 10 min at 10° C.) and the supernatant fractions analyzed by LC-MS/MS. Additional incubations were carried out with microsomes and a marker substrate (e.g., dextromethorphan to monitor substrate loss) as a positive control to determine if the test system was metabolically competent.
The incubation medium was assayed by LC/MS/MS for the formation of naloxone over time.

[12] = room temperature, tap water, 1N HCl or 5% aqueous sodium bicarbonate

## COc1ccc(CN(C(=O)[C@@H](N)Cc2c(C)cc(C(N)=O)cc2C)[C@@H](C)c2ncc(-c3ccccc3)[nH]2)cc1C(=O)O [Eluxadoline]
IBS-D patients; Phase II trials
  pancreatitis cases: several cases of pancreatitis
IBS-D patients; Phase III testing, IBS-D
  Phase III efficacy endpoints: met primary endpoints of improvement in stool consistency and reduction of abdominal pain

## C[N@+]1(CC2CC2)CC[C@]23c4c5ccc(O)c4O[C@H]2C(=O)CC[C@@]3(O)[C@H]1C5 [Methylnaltrexone Bromide]
μ opioid receptor [1]
  Ki: 42 nM

## CO[C@]12CC[C@@]3(C[C@@H]1[C@](C)(O)C(C)(C)C)[C@H]1Cc4ccc(OCCOc5ccc6c7c5O[C@H]5[C@@]8(OC)CC[C@@]9(C[C@@H]8[C@](C)(O)C(C)(C)C)[C@@H](C6)N(CC6CC6)CC[C@]759)c5c4[C@@]3(CCN1CC1CC1)[C@H]2O5 [buprenorphine dimer]
Male CD-1 mice [2]
  gastrointestinal motility as measured by fecal output: significantly decreases gastrointestinal motility
Male CD-1 mice [2]; 2 hours
  gastrointestinal motility as measured by fecal output at 2 hours: continues to inhibit gastrointestinal motility with statistically significant results
Human μ receptors [3]
  μ antagonist function: does not function as a μ-antagonist
Human μ receptors [4]
  μ agonist function: potent μ agonist
[5]
  absolute bioavailability (ratio of the area under the concentration curve after oral and IV dose): ≤ 1%
Male CD-1 mice [6]; FIG. 15
  dose dependence of fecal output: decreases with dose
Male CD-1 mice [6]; oral, 25 and 50 mg per kg, stressed male CD-1 mice
  fecal output versus placebo (vehicle): significantly reduced the fecal output
Human liver microsomes [7]
  stability in presence of microsomal enzymes (% Parent Remaining): relatively stable
[8]
  IC50: 7.6 nM
  Ki: 2.87 nM
  affinity for the δ receptor relative to the μ and κ opioid receptors: poor affinity
μ opioid receptor [9]
  affinity for the opioid μ receptor: significant affinity
[10]
  stability / degradation to buprenorphine: remained stable and did not degrade to release buprenorphine

## CO[C@]12CC[C@@]3(C[C@@H]1[C@](C)(O)C(C)(C)C)[C@H]1Cc4ccc(O)c5c4[C@@]3(CCN1CC1CC1)[C@H]2O5 [buprenorphine, Buprenorphine, reference compound]
[5]
  absolute bioavailability (ratio of the area under the concentration curve after oral and IV dose): about 30%

## CN(C)C(=O)C(CCN1CCC(O)(c2ccc(Cl)cc2)CC1)(c1ccccc1)c1ccccc1 [loperamide, reference compound]
mice
  number of pellets expelled versus control (vehicle) animals: significantly less

## C=CCN1CC[C@]23c4c5ccc(OCCOc6ccc7c8c6O[C@H]6C(=O)CC[C@@]9(O)[C@@H](C7)N(CC=C)CC[C@]869)c4O[C@H]2C(=O)CC[C@@]3(O)[C@H]1C5 [naloxone dimer]
Human liver microsomes [11]
  formation of naloxone over time: no evidence of formation naloxone over time
[12]
  stability / degradation to naloxone: does not appreciably degrade to naloxone
mice; comparable to control by hour 3 or later
  reversal of loperamide-induced constipation (fecal pellets excreted per hour): reversed the constipating effects
